Experimental data as given in paper PMC7215574, “Development of Thiazolidinones as Fungal Carbonic Anhydrase Inhibitors” (International Journal of Molecular Sciences, 2020).
Converted amounts (≈) assume the structure as drawn. Like-named read-outs stand apart in the source and are kept apart here.

Columns and labels:
[1] = tested on: T1, C. parapsilosis 2 strains; experiment: microbe, parasite or virus in culture; parameters: species or system clinical Candida isolates; CLSI broth microdilution MIC, Sabouraud dextrose broth, 35 °C, visual complete growth inhibition; details: Lodderomyces parapsilosis, 24 h, read-out: Tested Fungi (MIC Values μg/mL) / C. parapsilosis 2 strains
T1 construct: 2 clinical isolates
Method: (§1) The in vitro antifungal activities were determined by the broth microdilution method with sabouraud dextrose broth (BBL Microbiology Systems, Cockeysville, MD, USA), as recommended by the by the CLSI [43]. Ninety-six-well polystyrene microtitre plates containing serial dilutions of each compound were inoculated with each microorganism to yield the appropriate density (1–5 × 10^3 cells/mL) in a 100-μL final volume. Each plate included (i) fungi without the addition of the compound, (ii) just the medium, and (iii) just the compound. Topical and systemic antifungal reference drugs, clotrimazole and fluconazole, were inserted in the experiment. The plates were incubated for 24 h at 35 °C. […] Three independent experiments were performed in triplicate. The antimicrobial activity of these thiazolidinones was evaluated versus 24 clinical Gram-positive (S. aureus and S. epidermidis) and Gram-negative (E. coli and Enterobacter spp.) microorganisms. The antifungal activity of these derivatives was then tested versus 16 clinical fungal isolates belonging to the most relevant Candida spp. (C. albicans, C. tropicalis, C. parapsilosis, C. sakè, and C. glabrata). Prior to testing, each isolate was cultured on a selective medium to ensure purity and optimal growth, as previously reported. The isolates were routinely identified by the morphological aspects of colonies and by biochemical identification. The used clinical isolates were collected from specimens of patients at the ‘Azienda Policlinico Umberto I’ (Sapienza University of Rome) and were obtained from hematology/oncology and surgery departments, which also included an intensive care unit. In particular, the samples were isolated from the upper and lower respiratory tract, blood, and indwelling venous catheters; the isolates were identified by conventional methodologies. Participating subjects gave their written informed consent for this study.

C. tropicalis 3 strains [2] = tested on: T2, C. tropicalis 3 strains; experiment: microbe, parasite or virus in culture; parameters: species or system clinical Candida isolates; CLSI broth microdilution MIC, Sabouraud dextrose broth, 35 °C, visual complete growth inhibition; details: Candida tropicalis, 24 h, read-out: Tested Fungi (MIC Values μg/mL) / C. tropicalis 3 strains
T2 construct: 3 clinical isolates
Method: as §1

C. albicans 5 strains = tested on: T3, C. albicans 5 strains; experiment: microbe, parasite or virus in culture; parameters: species or system clinical Candida isolates; broth microdilution antifungal MIC, visual growth inhibition, CLSI; details: Candida albicans, 24 h, read-out: Tested Fungi (MIC Values μg/mL) / C. albicans 5 strains
T3 construct: 5 clinical isolates
Method: as §1

[3] = tested on: T4, Candida sake C. sakè 3 strains; experiment: microbe, parasite or virus in culture; parameters: species or system clinical Candida isolates; broth microdilution antifungal MIC, visual growth inhibition, CLSI; details: Fermentozyma sake, 24 h; read-out: Tested Fungi (MIC Values μg/mL) / C. sakè 3 strains
T4 construct: 3 clinical isolates
Method: as §1

C. glabrata 3 strains = tested on: T5, C. glabrata 3 strains; experiment: microbe, parasite or virus in culture; parameters: species or system clinical Candida isolates; broth microdilution antifungal MIC, visual growth inhibition, CLSI; details: Nakaseomyces glabratus, 24 h, read-out: Tested Fungi (MIC Values μg/mL) / C. glabrata 3 strains
T5 construct: 3 clinical isolates
Method: as §1

hCA I = target: T6, hCA I (Homo sapiens, UniProt P00915); experiment: stopped-flow CO2 hydrase assay; type: biochemical
T6 construct: gene CA1; recombinant, obtained in-house as previously reported
T6 sequence (P00915 2-261): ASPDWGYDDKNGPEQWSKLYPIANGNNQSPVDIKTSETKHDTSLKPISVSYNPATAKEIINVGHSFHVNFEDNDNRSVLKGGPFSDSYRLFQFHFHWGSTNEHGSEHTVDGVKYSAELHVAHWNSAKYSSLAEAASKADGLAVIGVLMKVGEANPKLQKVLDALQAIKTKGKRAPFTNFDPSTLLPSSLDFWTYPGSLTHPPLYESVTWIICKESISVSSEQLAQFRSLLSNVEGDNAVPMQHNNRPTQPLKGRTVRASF
Text: stopped-flow CO2 hydrase assay on hCA I

CgNce103 = target: T7, CgNce103 (Nakaseomyces glabratus, UniProt Q6FTL6); experiment: stopped-flow CO2 hydrase assay; type: biochemical
T7 construct: gene NCE103; recombinant, obtained in-house as previously reported; beta-class zinc enzyme
T7 sequence (Q6FTL6 1-219): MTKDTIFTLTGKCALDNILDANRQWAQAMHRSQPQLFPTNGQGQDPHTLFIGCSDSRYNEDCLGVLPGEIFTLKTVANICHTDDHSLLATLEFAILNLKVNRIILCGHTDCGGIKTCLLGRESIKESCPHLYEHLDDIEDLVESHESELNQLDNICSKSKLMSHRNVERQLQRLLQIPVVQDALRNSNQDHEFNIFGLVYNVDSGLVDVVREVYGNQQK

hCA II = target: T8, hCA II (Homo sapiens, UniProt P00918); experiment: stopped-flow CO2 hydrase assay; type: biochemical
T8 construct: gene CA2; recombinant, obtained in-house as previously reported
Text: stopped-flow CO2 hydrase assay on hCA II

[4] = stopped-flow CO2 hydrase assay; type: biochemical, Homo sapiens; details: read-out: hCA I
C. tropicalis 3 strains [5] = tested on: T2, C. tropicalis 3 strains; experiment: microbe, parasite or virus in culture; parameters: species or system clinical Candida isolates; broth microdilution antifungal MIC, visual growth inhibition, CLSI; details: Candida tropicalis, 24 h, read-out: Tested Fungi (MIC Values μg/mL) / C. tropicalis 3 strains
Method: as §1

SMILES | MIC [1] [µg/mL] | MIC (C. tropicalis 3 strains [2]) [µg/mL] | MIC (C. albicans 5 strains) [µg/mL] | MIC [3] [µg/mL] | MIC (C. glabrata 3 strains) [µg/mL] | Ki (hCA I) [µM] | Ki (CgNce103) [µM] | Ki (hCA II) [µM] | Ki [4] [µM] | MIC (C. tropicalis 3 strains [5]) [µg/mL]
O=C(N/N=C1\SCC(=O)N1c1ccc([N+](=O)[O-])cc1)C(O)c1ccccc1 (centres unmarked) [3n] | 32 (≈ 82.8 µM) | 32 (≈ 82.8 µM) | 8 to 32 (≈ 20.7 to 82.8 µM) | 8 to 32 (≈ 20.7 to 82.8 µM) | 8 to 32 (≈ 20.7 to 82.8 µM) |  |  |  |  | 
O=C(N/N=C1\SCC(=O)N1c1cccc(C(F)(F)F)c1)C(O)c1ccccc1 (centres unmarked) [3o] | 32 (≈ 78.2 µM) | 32 (≈ 78.2 µM) | 16 to 32 (≈ 39.1 to 78.2 µM) | 4 to 8 (≈ 9.77 to 19.5 µM) | 4 to 8 (≈ 9.77 to 19.5 µM) | > 100 | 0.12 | 82.8 |  | 
CC1S/C(=N\NC(=O)C(O)c2ccccc2)N(c2cccc(F)c2)C1=O (centres unmarked) [4a] | 8 (≈ 21.4 µM) |  | 16 to 32 (≈ 42.8 to 85.7 µM) | 4 to 8 (≈ 10.7 to 21.4 µM) | 8 to 32 (≈ 21.4 to 85.7 µM) | > 100 | 0.11 |  | > 100 | 8 to 32 (≈ 21.4 to 85.7 µM)
CC1S/C(=N\NC(=O)C(O)c2ccccc2)N(c2ccc(F)cc2)C1=O (centres unmarked) [4b] | 8 (≈ 21.4 µM) |  | 16 to 32 (≈ 42.8 to 85.7 µM) | 4 to 8 (≈ 10.7 to 21.4 µM) | 8 to 32 (≈ 21.4 to 85.7 µM) | > 100 | 0.48 |  | > 100 | 8 to 32 (≈ 21.4 to 85.7 µM)
CC1S/C(=N\NC(=O)C(O)c2ccccc2)N(c2cccc(Cl)c2)C1=O (centres unmarked) [4c] | 8 (≈ 20.5 µM) |  | 16 to 32 (≈ 41 to 82.1 µM) | 4 to 8 (≈ 10.3 to 20.5 µM) | 8 to 32 (≈ 20.5 to 82.1 µM) | > 100 | 0.12 |  | > 100 | 8 to 32 (≈ 20.5 to 82.1 µM)
CC1S/C(=N\NC(=O)C(O)c2ccccc2)N(c2ccc(Cl)cc2)C1=O (centres unmarked) [4d] | 8 (≈ 20.5 µM) |  | 4 to 16 (≈ 10.3 to 41 µM) | 4 to 8 (≈ 10.3 to 20.5 µM) | 8 to 32 (≈ 20.5 to 82.1 µM) |  |  |  |  | 8 to 32 (≈ 20.5 to 82.1 µM)
CC1S/C(=N\NC(=O)C(O)c2ccccc2)N(c2cccc(Br)c2)C1=O (centres unmarked) [4e] | 32 (≈ 73.7 µM) |  | 4 to 16 (≈ 9.21 to 36.8 µM) | 4 to 8 (≈ 9.21 to 18.4 µM) | 4 to 8 (≈ 9.21 to 18.4 µM) | > 100 | 0.56 | 68.2 |  | 4 to 8 (≈ 9.21 to 18.4 µM)
CC1S/C(=N\NC(=O)C(O)c2ccccc2)N(c2ccc(Br)cc2)C1=O (centres unmarked) [4f] | 32 (≈ 73.7 µM) |  | 4 to 16 (≈ 9.21 to 36.8 µM) | 4 to 8 (≈ 9.21 to 18.4 µM) | 4 to 8 (≈ 9.21 to 18.4 µM) | > 100 | 0.11 |  | > 100 | 4 to 8 (≈ 9.21 to 18.4 µM)
Cc1cccc(N2C(=O)C(C)S/C2=N\NC(=O)C(O)c2ccccc2)c1 (centres unmarked) [4g] | 32 (≈ 86.6 µM) |  | 4 to 16 (≈ 10.8 to 43.3 µM) | 4 to 8 (≈ 10.8 to 21.7 µM) | 4 to 8 (≈ 10.8 to 21.7 µM) | > 100 | 0.5 |  | > 100 | 4 to 8 (≈ 10.8 to 21.7 µM)
Cc1ccc(N2C(=O)C(C)S/C2=N\NC(=O)C(O)c2ccccc2)cc1 (centres unmarked) [4h] | 32 (≈ 86.6 µM) | 16 (≈ 43.3 µM) | 8 to 32 (≈ 21.7 to 86.6 µM) | 8 to 32 (≈ 21.7 to 86.6 µM) | 8 to 32 (≈ 21.7 to 86.6 µM) | > 100 | 0.09 |  | > 100 | 
COc1ccc(N2C(=O)C(C)S/C2=N\NC(=O)C(O)c2ccccc2)cc1 (centres unmarked) [4i] | 32 (≈ 83 µM) | 16 (≈ 41.5 µM) | 8 to 32 (≈ 20.8 to 83 µM) | 8 to 32 (≈ 20.8 to 83 µM) | 8 to 32 (≈ 20.8 to 83 µM) | > 100 | 0.69 |  | > 100 | 
CC1S/C(=N\NC(=O)C(O)c2ccccc2)N(c2ccc([N+](=O)[O-])cc2)C1=O (centres unmarked) [4j] | 32 (≈ 79.9 µM) | 16 (≈ 40 µM) | 8 to 32 (≈ 20 to 79.9 µM) | 8 to 32 (≈ 20 to 79.9 µM) | 8 to 32 (≈ 20 to 79.9 µM) |  |  |  |  | 
CC1S/C(=N\NC(=O)C(O)c2ccccc2)N(c2cccc(C(F)(F)F)c2)C1=O (centres unmarked) [4k] | 64 (≈ 151 µM) | 128 (≈ 302 µM) | 32 to 128 (≈ 75.6 to 302 µM) | 8 to 32 (≈ 18.9 to 75.6 µM) | 8 to 32 (≈ 18.9 to 75.6 µM) | > 100 | 0.11 |  | > 100 | 
